Experiments:
[1] = Accelerated stability testing of pharmaceutical composition comprising a protector; type: physicochemical; details: for Appearance of the pharmaceutical composition with protector on storage: stability results up to 4 months, tests terminated
Procedure: Similar to the experiments described in Example 3 above, where the effect of water quality on Fluralaner-containing medicated drinking water was tested; here samples of the pharmaceutical composition were tested for an effect of the addition of a protector, on their stability during prolonged storage.
To test the long term stability of the pharmaceutical composition with a protector, some samples were stored under conditions of accelerated ageing. Samples of the pharmaceutical composition with or without one of the protectors, were filled out in portions of 7 gram each, in 10 ml glass vials, sealed with rubber stoppers, and stored under different conditions: 2-8° C.; 30° C./65% RH; 40° C./75% RH, and 50° C. […]

[2] = Solubility and mixing of protectors in the base pharmaceutical composition; details: for Solubility in the base pharmaceutical composition: 0.95% w/w Fluralaner in Transcutol V and Tween 80 25:75
Procedure: To the base of a pharmaceutical composition as described herein, comprising isoxazoline, solvent, and surfactant, different compounds were added as protectors to prevent breakdown of isoxazoline when diluted in water with a water sanitizer such as hypochlorite.
Where the protector amount was zero, this sample served as unprotected control sample. The Fluralaner level was determined using UHPLC. The alpha-tocopherol used was alpha-tocopherol EP (Fluka).
For samples containing a protector, Fluralaner was added to a mixture of Transcutol V, Tween 80 and protector, and then mixed to dissolve.

[3] = Prevention of degradation by oxidizing sanitizer (hypochlorite) in medicated drinking water; type: physicochemical; details: for Colour during incubation in sanitized water: a few days into the incubation
Procedure: The Fluralaner level was determined using UHPLC. The alpha-tocopherol used was alpha-tocopherol EP (Fluka).
To prepare the test samples, the required amounts of Transcutol and Tween were measured, combined in a beaker at room temperature, and mixed magnetically. Next, when no protector was added, the required amount of Fluralaner was weighed, added, and mixed until complete dissolution, which usually required about 10 minutes, at 70% speed. […] The complete dissolution was verified visually. Next the density of the resulting solution was checked with a Densimeter, at 20° C.
To test the capacity of the different protectors to prevent degradation of Fluralaner in medicated drinking water by an oxidising sanitizer, samples of the pharmaceutical composition as prepared above were diluted to different concentrations, and incubated with different amounts of hypochlorite. Concentrations of Fluralaner in medicated drinking water used were: 1, 5, and 10 μg/ml.
The hypochlorite used was from a 13% sodium hypochlorite solution (Acros Organics), which was prepared into samples with a concentration of hypochlorite of: 0, 0.5, 2, 5, or 10 ppm, wherein 1 ppm equals 20 μM. Samples without hypochlorite served as positive controls. While the dilutions of hypochlorite were made in purified water, one additional sample at 5 ppm hypochlorite was prepared in standard tap water (Angers, France). Control samples were tested at day zero, all others were tested after an incubation for 7 days at 40° C./75% RH.
The concentration of protector in the test sample was dependent of the dilution factor of the concentrated Fluralaner composition applied: 1:10,000, 1:2000, or 1:1000, respectively.

Structure (SMILES)	Solubility in the base pharmaceutical composition [2]	Colour during incubation in sanitized water [3]	Appearance of the pharmaceutical composition with protector on storage [1]	also measured
CCCCCCCCCCCCOC(=O)c1cc(O)c(O)c(O)c1 [Lauryl gallate, dodecyl gallate]	soluble			Appearance of the pharmaceutical composition with protector ([1]; shortly after preparation): orange coloration appeared; Appearance after mixing in the base pharmaceutical composition [2]: orange coloration
COc1ccc(O)c(C(C)(C)C)c1 [BHA, butylated hydroxyanisole]	soluble	colour change did develop	discoloration	
Cc1cc(C(C)(C)C)c(O)c(C(C)(C)C)c1 [BHT, butylated hydroxytoluene]	soluble	colour change did develop	discoloration	
O=S([O-])[O-].[Na+].[Na+] [Na-sulphite, Sodium sulphite]	not soluble			
Cc1c(C)c2c(c(C)c1O)CC[C@@](C)(CCC[C@H](C)CCC[C@H](C)CCCC(C)C)O2 [alpha-tocopherol]				Protection of Fluralaner from degradation in sanitized drinking water ([3]; Fluralaner 1 μg/ml and 10 ppm hypochlorite, 7 days): could not protect; Protection of Fluralaner from degradation in sanitized drinking water ([3]; Fluralaner at 5 or 10 μg/ml, up to 7 days, 40° C., up to 10 ppm hypochlorite): completely protect; Stability of pharmaceutical composition, interaction by protector ([1]; stability data up to 18 months): lack of interaction; Level of alpha-tocopherol in pharmaceutical composition on storage ([1]; up to 8 months, 2-8° C., 30° C./65% RH, 40° C./75% RH, 50° C.): no significant reduction
O=S([O-])S(=O)(=O)[O-].[Na+].[Na+] [Na-metabisulfite, Sodium metabisulfite]	not soluble			
